For data set [1], the system named is HEK-293T. Kind of data set: Cytotoxicity against HEK293T cells assessed as reduction in cell viability at […] incubated for 24 hrs by MTT assay. The data set is classed as cell-based. The settings on record: human. (Tetrazolium dyes change colour on reduction, which living cells bring about.)
A short description of data set [2]: Selectivity index, ratio of compound effect for agonist activity at human LXRalpha to compound effect for agonist activity at […].
Data set [3] addresses T1, LXRalpha (Oxysterols receptor LXR-alpha) (Homo sapiens, UniProt Q13133).
T1 sequence (Q13133 whole entry): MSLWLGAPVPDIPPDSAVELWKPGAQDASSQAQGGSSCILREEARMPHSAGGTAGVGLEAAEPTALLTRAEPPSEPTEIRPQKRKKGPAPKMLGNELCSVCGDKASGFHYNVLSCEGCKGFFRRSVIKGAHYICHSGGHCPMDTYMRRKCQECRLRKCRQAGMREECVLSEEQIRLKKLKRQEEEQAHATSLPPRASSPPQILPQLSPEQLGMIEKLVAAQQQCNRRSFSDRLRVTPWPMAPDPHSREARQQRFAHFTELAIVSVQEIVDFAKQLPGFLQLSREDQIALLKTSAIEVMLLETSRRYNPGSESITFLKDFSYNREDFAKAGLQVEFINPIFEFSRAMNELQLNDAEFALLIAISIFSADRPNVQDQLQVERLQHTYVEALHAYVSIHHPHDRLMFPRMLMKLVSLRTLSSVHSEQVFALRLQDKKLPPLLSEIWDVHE
Description: Agonist activity at human LXRalpha transfected in HEK293T cells at 10 uM incubated for 20 hrs by luciferase reporter gene assay relative to control. Particulars: HEK293T cells transfected with human LXRalpha, read-out: FC. The data set is classed as cell-based. In general terms: In a reporter assay the amount or activity of a reporter protein is the signal.

The target in data set [4] is T2, Oxysterols receptor LXR-beta (Rattus norvegicus) (UniProt Q62755).
T2 sequence (whole entry): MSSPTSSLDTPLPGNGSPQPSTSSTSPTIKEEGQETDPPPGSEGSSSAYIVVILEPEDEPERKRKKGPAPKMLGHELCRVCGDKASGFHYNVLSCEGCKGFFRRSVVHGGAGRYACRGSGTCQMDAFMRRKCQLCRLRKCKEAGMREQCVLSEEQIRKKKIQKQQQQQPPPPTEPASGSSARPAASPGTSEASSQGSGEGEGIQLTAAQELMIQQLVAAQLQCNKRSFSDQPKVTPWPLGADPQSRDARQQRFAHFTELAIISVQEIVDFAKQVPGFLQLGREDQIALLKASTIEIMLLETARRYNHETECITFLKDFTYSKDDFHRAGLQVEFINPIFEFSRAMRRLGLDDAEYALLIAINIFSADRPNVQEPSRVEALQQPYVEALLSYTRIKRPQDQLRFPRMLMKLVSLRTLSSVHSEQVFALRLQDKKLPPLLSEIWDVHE
Description: Agonist activity at rat LXRbeta transfected in HEK293T cells at 10 uM incubated for 20 hrs by luciferase reporter gene assay relative to control. The data set is classed as cell-based.

The test system of data set [5] is RAW264.7. Description: Cytotoxicity against mouse RAW264.7 cells assessed as reduction in cell viability at 2 to 50 µM incubated for 24 hrs by MTT assay. The data set is classed as cell-based. Particulars: raw264.7, 24 h.
In data set [6] the test system is RAW264.7. Kind of data set: Anti-atherosclerotic activity in mouse RAW264.7 cells assessed as inhibition of ox-LDL induced lipid accumulation at 10 uM incubated for 48 hrs by ORO staining based microscopic analysis. The data set is classed as functional, cell-based.
The subject of data set [7] is 3T3-L1. Description: Anti-adipogenic activity in mouse 3T3L1 preadipocytes assessed as decrease in triglyceride accumulation. The data set is classed as functional, cell-based.
Data set [8] relates to 3T3-L1. Description: Anti-adipogenic activity in mouse 3T3L1 preadipocytes assessed as decrease in lipid accumulation by Oil Red O staining-based microscopic analysis. The data set is classed as functional, cell-based.
Data set [9] can be described thus: Agonist activity at LXR in mouse 3T3L1 preadipocytes assessed as increase in ABCA1 mRNA expression at 10 uM by qPCR analysis. The data set is classed as cell-based. A general note: Real-time PCR tracks product formation cycle by cycle.
For data set [10], the system named is RAW264.7. Kind of data set: Agonist activity at LXR in mouse RAW264.7 cells assessed as increase in ABCA1 mRNA expression at 10 uM incubated for 48 hrs by qPCR analysis. The data set is classed as cell-based.
Data set [11] concerns 3T3-L1. Description: Cytotoxicity against mouse 3T3L1 preadipocytes assessed as reduction in cell viability at 2 to 50 uM incubated for 24 hrs by MTT assay. The data set is classed as cell-based. The settings on record: 3t3-l1, 24 h.
The target of data set [12] is T3, Oxysterols receptor LXR-alpha (Homo sapiens) (UniProt Q13133).
T3 sequence (whole entry): T1 sequence (Q13133 whole entry)
Description: Agonist activity at human LXRalpha transfected in HEK293T cells at 10 uM incubated for 20 hrs in presence of LXR antagonist SR9243 by luciferase reporter gene assay relative to control. The data set is classed as cell-based.

The subject of data set [13] is HepG2. Description: Lipid lowering activity in human HepG2 cells assessed as decrease in OA-induced TG accumulation at 10 uM incubated for 24 hrs. The data set is classed as functional, cell-based.
For data set [14], the system named is PBMC. Kind of data set: Anti-atherosclerotic activity in C57BL/6 mouse PBMC assessed as inhibition of ox-LDL induced lipid accumulation at 10 uM incubated for 48 hrs by ORO staining based microscopic analysis. The data set is classed as functional, cell-based.
The species entered for data set [15] is Mus musculus. Description: Agonist activity at LXR in C57BL/6 mouse PBMC assessed as increase in ABCA1 mRNA expression at 10 uM incubated for 48 hrs by qPCR analysis.
Data set [16] has as its target Liver X receptor (Homo sapiens) (UniProt Q13133+P55055). Description: Agonist activity at LXR in human HepG2 cells assessed as increase in ABCA1 mRNA expression at 10 uM incubated for 24 hrs by qPCR analysis. The data set is classed as cell-based.
A short description of data set [17]: Agonist activity at LXR in mouse 3T3L1 preadipocytes assessed as increase in sREBP-1c mRNA expression at 10 uM by qPCR analysis. The data set is classed as cell-based.
Data set [18] has as its system HepG2. Description: Cytotoxicity against human HepG2 cells assessed as reduction in cell viability at 2 to 50 uM incubated for 24 hrs by MTT assay. The data set is classed as cell-based. Particulars: hepg2, 24 h.
For data set [19], the system named is HepG2. Description: Effect on TG accumulation in human HepG2 cells at 10 uM incubated for 24 hrs. The data set is classed as ADME, cell-based. The settings on record: hepg2, 24 h.
Data set [20] deals with Mus musculus. Description: Induction of hepatic steatosis in C57BL/6 mouse assessed as accumulation of hepatic triglyceride level at 50 mg/kg/day, ig administered for 7 days. The settings on record: in vivo, po, 168 h. The data set is classed as organism-based.
Data set [21] in a line: Toxicity in high fat diet-induced C57BL/6 mouse model of hypercholesterolemia assessed as reduction in liver weight at 20 mg/kg, po administered for 12 weeks by H and E staining-based assay. The data set is classed as organism-based. Particulars: in vivo, 2016 h.
Data set [22] has as its system Mus musculus. Description: Induction of hepatic steatosis in C57BL/6 mouse assessed as accumulation of serum triglyceride level at 50 mg/kg/day, ig administered for 7 days. The data set is classed as organism-based. Particulars: in vivo, po, 168 h.
Data set [23] concerns Mus musculus. Kind of data set: Increase in hepatic triglyceride level in high fat diet-induced C57BL/6 mouse model of hypercholesterolemia at 20 mg/kg, po administered for 12 weeks. The data set is classed as ADME, organism-based. Particulars: in vivo, 2016 h.
A short description of data set [24]: Agonist activity at LXR in C57BL/6 mouse PBMC assessed as increase in sREBP-1c mRNA expression at 10 uM incubated for 48 hrs by qPCR analysis.
The nature of data set [25]: Agonist activity at LXR in mouse RAW264.7 cells assessed as increase in sREBP-1c mRNA expression at 10 uM incubated for 48 hrs by qPCR analysis. The data set is classed as cell-based. The settings on record: raw264.7, 48 h.

The source made the active and inactive calls. The rule behind the calls is not given here.

Liver X receptor (Homo sapiens), sequence (P55055 whole entry, looked up, one chain of several): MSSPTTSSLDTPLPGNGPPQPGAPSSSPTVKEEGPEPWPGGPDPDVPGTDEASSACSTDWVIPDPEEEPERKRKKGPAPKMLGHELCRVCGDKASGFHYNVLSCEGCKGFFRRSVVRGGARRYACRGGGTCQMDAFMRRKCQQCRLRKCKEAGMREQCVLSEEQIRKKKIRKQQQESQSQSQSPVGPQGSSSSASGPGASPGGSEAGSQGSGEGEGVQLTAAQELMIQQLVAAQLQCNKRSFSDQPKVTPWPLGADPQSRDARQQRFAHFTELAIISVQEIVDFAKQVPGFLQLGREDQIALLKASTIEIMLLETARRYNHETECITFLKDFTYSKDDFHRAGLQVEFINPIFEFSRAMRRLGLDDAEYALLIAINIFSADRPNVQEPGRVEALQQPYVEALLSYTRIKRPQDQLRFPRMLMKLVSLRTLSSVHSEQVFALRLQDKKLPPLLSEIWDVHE

On to `CC(=O)O[C@H]1CC[C@@]2(C)C(=CC[C@H]3[C@@H]4CC[C@H]([C@H](C)CCC(=O)C(C)C)[C@@]4(C)CC[C@@H]32)C1`, for which the Activity entry in data set [1] is “Non-Toxic”. For the same compound, the Ratio in data set [2] amounted to 1.14. Besides, in data set [3], the fold induction at 20 h, 10 µM was determined as 2.63. In addition, in data set [4], the fold change (FC) amounted to 3.

For the compound `CC(C)C(=O)CC[C@@H](C)[C@H]1CC[C@H]2[C@@H]3CC=C4C[C@@H](O)CC[C@]4(C)[C@H]3CC[C@]12C`, the Activity entry in [5] is recorded as “Non-Toxic”; in data set [9], “Active”; in data set [11], “Non-Toxic”; in data set [1], “Non-Toxic”; in data set [17], “Not Active”; in [18], “Non-Toxic”. In addition, the Activity result in data set [19] is reported as “Non-Toxic”. In addition, the inhibition result in data set [6] and in [14] was “Active” each time. The result in data set [7], in data set [8], in data set [10], in data set [13], in data set [15] and in data set [16] was Active. Further, the outcome in [12] was inactive. The Ratio in [2] came out at 1.63. Also, the fold induction at 20 h, 10 µM in [3] is 2.36. Also, the fold change (FC) in [4] came out at 3.85.

For `O=S(=O)(c1ccccc1)N(CC(F)(F)F)c1ccc(C(O)(C(F)(F)F)C(F)(F)F)cc1` [T091317], the Activity entry in data set [20], in data set [21], in [22] and in data set [23] was “Toxic” throughout.

`O=C(O)Cc1cccc(OCCCN(Cc2cccc(C(F)(F)F)c2Cl)CC(c2ccccc2)c2ccccc2)c1`: the Activity entry in [9] is “Active”; in data set [24] it was “Not Active”; in data set [17], “Active”; in data set [19], “Toxic”; in data set [25], “Not Active”. For the same compound, the outcome in [13] was inactive. The outcome in data set [15] and in data set [16] was Active. The Ratio in [2] is 1.11. Further, the fold induction at 20 h, 10 µM in [3] came to 2.19. For the same compound, the fold change (FC) in data set [4] turned out to be 2.42.

The record behind these values is ChEMBL document CHEMBL4359918, “Discovery of tissue selective liver X receptor agonists for the treatment of atherosclerosis without causing hepatic lipogenesis” (Eur J Med Chem, 2019).
